Kd data for one compound are collected here from ChEMBL document CHEMBL5727861, “Compounds and methods for the enhanced degradation of targeted proteins” (2020).

As usually defined, the Kd is the free concentration of one partner at which half of the binding sites on the other are occupied at equilibrium, for simple one-to-one binding. A higher Kd goes with a looser complex.

The target in this test is von Hippel-Lindau disease tumor suppressor (Homo sapiens, UniProt P40337). Nature of the test: Compounds were transferred from the stock plate to the assay plate and diluted into running buffer containing no DMSO. All compounds were run as a six-concentration series with a final assay top concentration of 100 uM. Data analysis was performed in Scrubber 2 (BioLogic software, Campbell, Australia). Blanks were subtracted and data was corrected for DMSO using a standard DMSO curve.
Sequence of von Hippel-Lindau disease tumor suppressor (P40337 whole entry): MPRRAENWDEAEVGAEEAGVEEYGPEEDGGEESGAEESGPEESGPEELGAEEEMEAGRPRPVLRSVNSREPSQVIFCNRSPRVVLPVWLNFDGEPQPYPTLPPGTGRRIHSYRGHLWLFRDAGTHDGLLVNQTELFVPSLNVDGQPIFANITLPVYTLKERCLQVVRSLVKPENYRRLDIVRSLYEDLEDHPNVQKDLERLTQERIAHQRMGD

The compound `COc1cc([C@H](C(=O)N2C[C@H](O)C[C@H]2C(=O)NCc2ccc(-c3scnc3C)cc2)C(C)C)on1` returned a Kd of 13 µM.
